The term ΔTm denotes the shift of the melting midpoint relative to a reference. A word on the IC50: it is the midpoint of a concentration-inhibition curve. As a reminder, the Tm is the temperature at which the thermal transition is half complete.

SMILES strings stand for the structures. The source made the active and inactive calls. The rule behind the calls is not given here.

The values below come from ChEMBL document CHEMBL1938294, “DNA binding and anticancer activity of naphthalimides with 4-hydroxyl-alkylamine side chains at different lengths” (Bioorg Med Chem Lett, 2012).

Test [1] deals with Nucleic Acid. Description: Binding affinity to calf thymus DNA assessed as change in melting temperature at 5 x 10^-6 M by thermal denaturation assay. In kind it is nucleic-acid assay. The conditions noted are these: Bos taurus.
Another test concerns Bel-7402. Put plainly: Cytotoxicity against human Bel7402 cells by MTT assay. The class given is functional, cell-based. In general terms: Tetrazolium assays rely on reduction of a dye to a coloured formazan, in cell work by metabolically active cells.
In test [2] the test system is Nucleic Acid. Put plainly: Binding affinity to calf thymus DNA assessed as bathochromic shift at 1 x 10^-5 M by UV-Vis spectroscopy. The class given is nucleic-acid assay. The conditions noted are these: Bos taurus.
The subject of test [3] is Nucleic Acid. Put plainly: Binding affinity to calf thymus DNA assessed as hypochromicity at 1 x 10^-5 M by UV-Vis spectroscopy. Conditions: Bos taurus. In kind it is nucleic-acid assay.
Test [4] deals with Nucleic Acid. Put plainly: Binding affinity to calf thymus DNA assessed as efficiency of fluorescence enhancement at 1 x 10^-5 M by fluorescence spectroscopy. The class given is nucleic-acid assay. Conditions: Bos taurus.
Test [5] deals with Nucleic Acid. Put plainly: Binding affinity to calf thymus DNA assessed as intercalation at 1 x 10^-5 M by fluorescence spectroscopy. In kind it is nucleic-acid assay. Conditions: Bos taurus.
In a further test the test system is HL-60. Put plainly: Cytotoxicity against human HL60 cells by MTT assay. In kind it is functional, cell-based.
Test [6] deals with Nucleic Acid. Description: Binding affinity to calf thymus DNA assessed as melting temperature at 5 x 10^-6 M by thermal denaturation assay (reference value: 68.4 degC). In kind it is nucleic-acid assay. Conditions: Bos taurus.
Test [7] concerns Nucleic Acid. Description: Binding affinity to calf thymus DNA assessed as intercalation at 2 x 10^-5 M by CD spectroscopy. The conditions noted are these: Bos taurus. The class given is nucleic-acid assay.
In test [8] the test system is Nucleic Acid. Put plainly: Binding affinity to calf thymus DNA by UV-Vis spectroscopy. The class given is nucleic-acid assay. The conditions noted are these: Bos taurus.

In the case of `CN(C)CCN1C(=O)c2cccc3c(NCCO)ccc(c23)C1=O`, in the test on Nucleic Acid [1], the ΔTm was found to be 2.6 °C. The results for the half-inhibitory concentration (IC50) in the test on Bel-7402 and with HL-60 were 30.9 µM and 25.9 µM, respectively. Also, the Activity in the test with Nucleic Acid [2] turned out to be 447 nm; in the test on Nucleic Acid [3], 31%. Besides, the KSV with Nucleic Acid [4] turned out to be 3.12 ×10³ /M. Also, the result with Nucleic Acid [5] and in the test on Nucleic Acid [7] was Active. The melting temperature (Tm) in the test on Nucleic Acid [6] amounted to 71 °C. In addition, the K in the test on Nucleic Acid [8] is 1.44 ×10⁴ /M.
With `CN(C)CCN1C(=O)c2cccc3c(NCCCCO)ccc(c23)C1=O`, the thermal shift (ΔTm) with Nucleic Acid [1] worked out at 2.8 °C. Moreover, the half-maximal inhibitory concentration (IC50) is 5.57 µM with Bel-7402 and 11.2 µM in the test with HL-60. In addition, the Activity in the test on Nucleic Acid [2] worked out at 452 nm; in the test on Nucleic Acid [3], 30%. For the same compound, in the test on Nucleic Acid [4], the KSV was 1.15 ×10³ /M. Moreover, the result with Nucleic Acid [5] and in the test on Nucleic Acid [7] was Active. In addition, in the test with Nucleic Acid [6], the Tm stood at 71.2 °C. In the test with Nucleic Acid [8], this compound had a K of 0.74 ×10⁴ /M.
Regarding `CN(C)CCN1C(=O)c2cccc3c(NCCCO)ccc(c23)C1=O`, the ΔTm in the test on Nucleic Acid [1] was 3.5 °C. In addition, the IC50 in the test with Bel-7402 was 33.5 µM; in the test with HL-60, 38.5 µM. For the same compound, the Activity in the test on Nucleic Acid [2] was 453 nm; with Nucleic Acid [3], 31%. Also, the KSV with Nucleic Acid [4] came to 4.03 ×10³ /M. For the same compound, the result in the test with Nucleic Acid [5] and in the test with Nucleic Acid [7] was Active. The Tm in the test on Nucleic Acid [6] was 71.9 °C. In addition, the K in the test with Nucleic Acid [8] amounted to 1.03 ×10⁴ /M.
As to `CN(C)CCN1C(=O)c2cccc3c(NCCCCCCO)ccc(c23)C1=O`, the ΔTm in the test with Nucleic Acid [1] is 3.4 °C. The results for the IC50 in the test with Bel-7402 and with HL-60 were 17.5 µM and 20.5 µM, respectively. Also, the Activity in the test on Nucleic Acid [2] was determined as 453 nm; in the test with Nucleic Acid [3], 31%. Besides, in the test with Nucleic Acid [4], the KSV stood at 7.12 ×10³ /M. Moreover, the outcome in the test with Nucleic Acid [5] and in the test on Nucleic Acid [7] was Active. Besides, in the test with Nucleic Acid [6], the Tm is 71.8 °C. This compound had a K in the test with Nucleic Acid [8] of 1.1 ×10⁴ /M.
As for `CN(C)CCN1C(=O)c2cccc3c(NCCCCCO)ccc(c23)C1=O`, the ΔTm with Nucleic Acid [1] stood at 3.8 °C. For the same compound, the IC50 in the test with Bel-7402 was determined as 9.17 µM; in the test with HL-60, 17.7 µM. In addition, the Activity amounted to 453 nm in the test on Nucleic Acid [2] and 31% in the test with Nucleic Acid [3]. The KSV in the test with Nucleic Acid [4] turned out to be 4.36 ×10³ /M. Moreover, the outcome in the test on Nucleic Acid [5] and in the test on Nucleic Acid [7] was Active. The Tm in the test on Nucleic Acid [6] was found to be 72.2 °C. The same compound registered a K in the test on Nucleic Acid [8] of 1.2 ×10⁴ /M.
